Assay results taken from US10722446B2, “Aqueous oral care compositions” (Colgate-Palmolive Company, priority 2011, dated 2020).

Test: Rheological properties (stress controlled AR2000ex rheometer, flow curve and strain sweep)
Format: physicochemical
From the text: The three commercial mouthwashes are a simple fluoride-rinse type mouthwash (comparative formulation 1), a polymer based high fluoride mouthwash (comparative formulation 2), and a mouthwash having a conventional polymer system different from that described in this case (mouthwash 3). The rheological properties of the formulations are quantified using a stress controlled AR2000ex rheometer (TA Instruments) and a cuette type geometry. A flow curve is generated and fit to a power law model to quantify the flow rate index, n. A strain sweep is conducted to quantify the elastic modulus, G′ and the loss modulus, G″.

[1] = flow curve fit to a power law model
[2] = strain sweep, cuette type geometry

O [Newtonian Fluid Example, Water]
k [1]: 1.1 cps | n (flow rate index) [1]: 1.0 | G′/G″ (ratio of elastic to viscous components): 0.09 | G′ (elastic modulus) [2]: 0.02 dyn/cm2 | G″ (loss modulus) [2]: 0.23 dyn/cm2
